The numbers were not newly measured in patent US10758505B2, “Therapeutic compositions and methods” (Innovus Pharmaceuticals, Inc., priority 2017, dated 2020), which cites them from elsewhere.

One data set concerns the target human CYP3A4 (Homo sapiens, UniProt P08684).
Another data set has as its target P-glycoprotein (Homo sapiens, UniProt P08183).

Each structure is given as a SMILES string.

Sequence of human CYP3A4 (P08684 whole entry): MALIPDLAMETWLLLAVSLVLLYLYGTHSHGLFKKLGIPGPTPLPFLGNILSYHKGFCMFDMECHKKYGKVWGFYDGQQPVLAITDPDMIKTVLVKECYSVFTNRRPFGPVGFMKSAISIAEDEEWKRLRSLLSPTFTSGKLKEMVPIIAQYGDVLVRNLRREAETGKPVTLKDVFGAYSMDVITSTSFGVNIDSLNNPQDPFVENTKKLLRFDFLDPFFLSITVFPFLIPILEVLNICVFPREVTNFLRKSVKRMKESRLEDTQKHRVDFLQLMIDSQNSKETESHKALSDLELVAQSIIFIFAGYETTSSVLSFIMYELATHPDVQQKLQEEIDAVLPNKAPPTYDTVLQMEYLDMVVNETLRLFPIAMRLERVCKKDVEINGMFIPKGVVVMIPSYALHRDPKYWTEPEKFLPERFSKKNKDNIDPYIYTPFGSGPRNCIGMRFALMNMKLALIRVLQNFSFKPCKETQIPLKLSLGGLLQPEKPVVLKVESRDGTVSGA
Sequence of P-glycoprotein (P08183 whole entry): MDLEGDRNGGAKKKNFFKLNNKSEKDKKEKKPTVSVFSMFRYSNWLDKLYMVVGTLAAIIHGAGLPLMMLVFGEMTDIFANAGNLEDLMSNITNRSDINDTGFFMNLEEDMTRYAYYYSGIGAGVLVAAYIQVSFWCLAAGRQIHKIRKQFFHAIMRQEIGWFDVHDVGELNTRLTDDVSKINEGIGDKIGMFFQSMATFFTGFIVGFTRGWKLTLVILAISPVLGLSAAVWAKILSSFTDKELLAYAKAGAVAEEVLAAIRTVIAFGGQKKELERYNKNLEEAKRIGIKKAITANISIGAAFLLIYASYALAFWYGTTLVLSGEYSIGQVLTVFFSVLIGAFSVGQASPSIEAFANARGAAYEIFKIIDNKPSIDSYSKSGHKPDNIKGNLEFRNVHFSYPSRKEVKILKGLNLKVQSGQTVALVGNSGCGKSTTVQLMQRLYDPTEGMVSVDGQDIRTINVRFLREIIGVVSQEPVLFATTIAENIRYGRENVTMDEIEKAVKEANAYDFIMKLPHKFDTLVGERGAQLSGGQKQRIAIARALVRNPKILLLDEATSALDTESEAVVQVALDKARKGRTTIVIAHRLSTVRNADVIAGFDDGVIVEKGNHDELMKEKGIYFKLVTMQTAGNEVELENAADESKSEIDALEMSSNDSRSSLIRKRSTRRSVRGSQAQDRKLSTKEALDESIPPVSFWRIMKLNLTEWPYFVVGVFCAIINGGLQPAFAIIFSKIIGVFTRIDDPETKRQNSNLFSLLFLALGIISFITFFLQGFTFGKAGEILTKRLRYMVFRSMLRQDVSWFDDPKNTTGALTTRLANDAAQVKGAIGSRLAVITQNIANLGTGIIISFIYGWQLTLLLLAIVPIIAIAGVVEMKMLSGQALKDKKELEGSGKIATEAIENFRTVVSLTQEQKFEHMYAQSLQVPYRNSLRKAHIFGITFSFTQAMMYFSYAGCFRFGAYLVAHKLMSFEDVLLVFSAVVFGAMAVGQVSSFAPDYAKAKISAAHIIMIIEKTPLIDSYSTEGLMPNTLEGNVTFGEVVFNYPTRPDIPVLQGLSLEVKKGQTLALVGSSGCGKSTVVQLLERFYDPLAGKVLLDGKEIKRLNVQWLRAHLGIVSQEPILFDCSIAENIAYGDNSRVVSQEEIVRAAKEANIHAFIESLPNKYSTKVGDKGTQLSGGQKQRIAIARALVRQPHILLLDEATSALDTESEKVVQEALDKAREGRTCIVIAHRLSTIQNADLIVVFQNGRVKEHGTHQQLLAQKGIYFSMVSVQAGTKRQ

As for `O=C(/C=C/C=C/c1ccc2c(c1)OCO2)N1CCCCC1` [Bioperine®, (2E,4E)-5-(1,3-benzodioxol-5-yl)-1-(piperidin-1-yl)penta-2,4-dien-1-one], on human CYP3A4, the “inhibition of human CYP3A4” value is reported as “inhibits”. Moreover, the “inhibition of P-glycoprotein” value at P-glycoprotein is listed as “inhibits”.
